Here are results for three substances from patent US10426815B2, “Prevention and treatment of itch with an MRGPR antagonist” (THE GENERAL HOSPITAL CORPORATION, priority 2015, dated 2019).

Entries after “also recorded” stand apart in the source; their conditions may differ.

The test system of assay [1] is dorsal root ganglion neurons from NK1 mice. Nature of the assay: DRG culture and calcium imaging, NK1 knockout mice. It counts as cell-based, mouse. How it is done:
Cervical to lumbar dorsal root ganglia (DRG) from C57/B6 or NK1 mice (1 month old) were dissected and maintained in DMEM (GIBCO, Langley, Okla., USA), containing […] L-glutamine (FISHER […], Pittsburgh, Pa., USA), 10% heat inactivated fetal bovine serum (GIBCO, Langley, Okla., USA), 5000 U/ml penicillin and 5000 μg/ml streptomycin (FISHER […], Pittsburgh, Pa., USA). Enzymatic digestion was carried out with 1 mg collagenase in 1 ml dispase (ROCHE Applied Sciences, IN, USA), at 37° C. for 70 min. The collagenase/dispase solution was removed, and DRGs were washed and suspended in DMEM containing 125 U DNAse (SIGMA, St Louis, USA) within which the ganglia were mechanically triturated using fire-polished glass pipettes. […] Cells were evaluated using a NIKON Eclipse Ti inverted microscope equipped with an Exi Aqua CCD camera (QIMAGING, British Columbia, Canada). Ca^2+ flux fluorescence was measured as an […] ratio at 340 nm and 380 nm (F340/380) (Lambda DG4, Sutter Instruments, Novato, Calif., US). The 340/380 ratiometric images were analyzed using NIKON Elements AR Software (NIKON, Melville, N.Y. USA). […]

The target in another assay is T1, PAR2 (Homo sapiens, UniProt P55085).
T1 construct: expressed in transfected cells; host or cells: HeLa cells by analogy with the other receptors
T1 sequence (P55085 26-397): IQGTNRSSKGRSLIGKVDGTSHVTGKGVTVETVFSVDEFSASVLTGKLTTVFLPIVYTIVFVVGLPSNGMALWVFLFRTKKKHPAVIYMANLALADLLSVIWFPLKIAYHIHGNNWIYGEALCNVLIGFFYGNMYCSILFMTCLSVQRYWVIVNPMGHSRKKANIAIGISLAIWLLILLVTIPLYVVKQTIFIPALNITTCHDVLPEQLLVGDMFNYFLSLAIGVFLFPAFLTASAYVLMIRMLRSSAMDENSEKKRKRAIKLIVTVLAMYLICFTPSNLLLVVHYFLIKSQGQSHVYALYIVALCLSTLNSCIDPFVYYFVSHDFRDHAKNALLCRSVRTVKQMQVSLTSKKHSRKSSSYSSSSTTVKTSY
The experiment in a line: Calcium imaging of cells transfected with the GPCR (Table 1). It counts as cell-based.

As to “Boc-Gln-D-Trp(Formyl)-Phe benzyl ester trifluoroacetate [QWF]”, the “inhibition of SP-induced activation of NK1 knockout DRG neurons” value in assay [1] (QWF 1 μM) was “significantly diminished; also recorded: blocked; also recorded: inhibits; also recorded: significantly decreases”. At PAR2, the “inhibition of PAR2 activation by 48/80” value was “antagonizes” and the “inhibition of PAR2 activation by SLIGRL” value is listed as “not”.

“SLIGRL: tethered hexapeptide ligand of mouse PAR2 (SEQ ID NO: 7)”: the “activation of PAR2 by the substance (in words)” value with PAR2 is reported as “activates”.

With “SP: inflammatory undecapeptide neuropeptide of the tachykinin family, synthesized by GenScript”, the “activation of NK1 knockout DRG neurons by SP” value in assay [1] (cultured DRGs, calcium imaging) is recorded as “activated”.
